According to US10968193B2, “Antidiabetic bicyclic compounds” (Merck Sharp & Dohme Corp., priority 2014, dated 2021):

These molecules were tested against T1, human GPR40 (Homo sapiens, UniProt O14842) (assay: Inositol Phosphate Turnover (IP1) Assay 1). Conditions: HEK cells stably expressing human GPR40; 15,000 cells per well; compound transferred via pocket tip; CisBio IP-One kit.
T1 construct: expressed in transfected cells; host or cells: HEK cells stably expressing the aequorin reporter
Format: cell-based
Description: Human and mouse GPR40 stable cell-lines were generated in CHO cells stably expressing NFAT BLA (Beta-lactamase). A human GPR40 stable cell-line was generated in HEK cells stably expressing the aequorin expressing reporter. The expression plasmids were transfected using lipofectamine (Life Technologies) following manufacturer's instructions. Stable cell-lines were generated following drug selection.
Inositol Phosphate Turnover (IP1) Assay 1:
The assay was performed in 384-well format. HEK cells stably expressing human GPR40 were plated at 15,000 cells per well in growth medium (DMEM/10% fetal calf serum). Cell plates were then incubated 16 hours at 37 degrees in a 5% CO2 incubator.
Measurement of Inositol Phosphate Turnover (IP1) was performed using the CisBio IP-One kit (Part number 62IPAPEB). After the 16 hour incubation, the cells were washed with HEPES buffer and 10 ul of stimulation buffer (prepared as described in the kit) is added to each well. In a separate plate, compounds were diluted in DMSO (400-fold over the final concentration in the assay well) and 25 nl was transferred via pocket tip to the appropriate well in the assay cell plate. The plates were then incubated for 60 minutes at 37 degrees. 10 ul of detection buffer (also prepared as described in the IP-One kit) was added to each well and the plates were incubated for 60 minutes in the dark. The plates were then read in a Perkin Elmer EnVision or equivalent reader able to measure FRET. Fluorescent ratio of emission at 665 and 620 nm was then converted to IP1 concentration by back calculating from an IP1 standard curve prepared at the time of the assay.

T1 sequence (O14842 whole entry): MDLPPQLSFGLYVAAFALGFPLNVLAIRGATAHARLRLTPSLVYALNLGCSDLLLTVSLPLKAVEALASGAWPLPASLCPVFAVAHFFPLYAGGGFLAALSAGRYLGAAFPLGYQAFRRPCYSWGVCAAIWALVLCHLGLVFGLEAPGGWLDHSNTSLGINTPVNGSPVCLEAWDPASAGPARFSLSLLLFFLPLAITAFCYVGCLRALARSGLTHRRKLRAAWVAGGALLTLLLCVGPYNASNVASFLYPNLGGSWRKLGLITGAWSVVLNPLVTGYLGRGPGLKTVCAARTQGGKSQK

EC50 | SMILES
2990 nM | COc1ccc(F)c(-c2ccc(C3CCc4ccc([C@H](C5CC5)[C@H](C)C(=O)O)cc4O3)cc2CN)c1 (mixture of isomers) [Example 2]
193 nM | COc1cc(-c2ccc(C3CCc4ccc([C@H](C5CC5)[C@H](C)C(=O)O)cc4O3)cc2CN2CCC2)c(F)cn1 (mixture of isomers) [Example 10]
8.6 nM | COc1cc(-c2ccc(C3CCc4ccc([C@H](C5CC5)[C@H](C)C(=O)O)cc4O3)cc2CN(C)C)c(F)cn1 (stereo partly drawn) [Example 1, (2S,3R)-3-cyclopropyl-3-(2-(3-((dimethylamino)methyl)-4-(5-fluoro-2-methoxypyridin-4-yl)phenyl)chroman-7-yl)-2-methylpropanoic acid]
18 nM | COc1cc(-c2ccc(C3CCc4ccc([C@H](C5CC5)[C@H](C)C(=O)O)cc4O3)cc2C(C)N(C)C)c(F)cn1 (some centres unmarked) [Example 3]

These molecules were tested against T1, human GPR40 (assay: Inositol Phosphate Turnover (IP1) Assay 2). Conditions: HEK cells stably expressing human GPR40; 15,000 cells per well; compound acoustically transferred; CisBio IP-One kit.
Format: cell-based
Outline: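 HEK cells stably expressing human GPR40, plated 16 h beforehand, were exposed to compound in stimulation buffer for 60 min at 37 °C. IP1 accumulation was detected by HTRF (665/620 nm ratio) after 60 min with detection reagents and converted to IP1 concentration from a same-day standard curve.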

SMILES | EC50
COc1cc(-c2ccc([C@H]3CCc4ccc([C@H](C5CC5)[C@H](C)C(=O)O)cc4O3)cc2CN2CCC[C@H]2C)c(F)cn1 [Example 137] | 4.6 nM
COc1cc(-c2ccc([C@@H]3CCc4ccc([C@H](C5CC5)[C@H](C)C(=O)O)cc4O3)cc2CN2CCC[C@@H]2C)c(F)cn1 [Example 140] | 1.8 nM
COc1cc(-c2ccc([C@@H]3CCc4ccc([C@H](C5CC5)[C@H](C)C(=O)O)cc4O3)cc2CN2CCC[C@H]2C)c(F)cn1 [Example 141] | 1.1 nM
COc1cc(-c2ccc([C@H]3CCc4ccc([C@H](C5CC5)[C@H](C)C(=O)O)cc4O3)cc2CN2CCCC(C)(C)C2)c(F)cn1 [Example 142] | 1.1 nM
COc1cc(-c2ccc([C@@H]3CCc4ccc([C@H](C5CC5)[C@H](C)C(=O)O)cc4O3)cc2CN2CCCC(C)(C)C2)c(F)cn1 [Example 143] | 0.3 nM
COc1cc(-c2ccc([C@H]3CCc4ccc([C@H](C5CC5)[C@H](C)C(=O)O)cc4O3)cc2CN2CCCCC23CC3)c(F)cn1 [Example 144] | 0.3 nM
CCN(CC)Cc1cc([C@H]2CCc3ccc([C@H](C4CC4)[C@H](C)C(=O)O)cc3O2)ccc1-c1cc(OC)ncc1F [Example 145] | 2.7 nM
COc1cc(-c2ccc([C@H]3CCc4ccc([C@H](C5CC5)[C@H](C)C(=O)O)cc4O3)cc2CN2CCCC2(C)C)c(F)cn1 [Example 146] | 1.8 nM
COc1cc(-c2ccc([C@H]3CCc4ccc([C@H](C5CC5)[C@H](C)C(=O)O)cc4O3)cc2CN2[C@H](C)CC[C@H]2C)c(F)cn1 [Example 147] | 0.7 nM
COc1cc(-c2ccc([C@H]3CCc4ccc([C@H](C5CC5)[C@H](C)C(=O)O)cc4O3)cc2CN2C3CCC2CC3)c(F)cn1 [Example 148] | 4.2 nM
COc1cc(-c2ccc([C@H]3CCc4ccc([C@H](C5CC5)[C@H](C)C(=O)O)cc4O3)cc2CNCC(F)(F)F)c(F)cn1 [Example 149] | 2.5 nM
COc1cc(-c2ccc([C@@H]3CCc4ccc([C@H](C5CC5)[C@H](C)C(=O)O)cc4O3)cc2CNCC(F)(F)F)c(F)cn1 [Example 150] | 1 nM
COc1cc(-c2ccc([C@@H]3CCc4ccc([C@H](C5CC5)[C@H](C)C(=O)O)cc4O3)cc2CN2CCCCC2)c(F)cn1 [Example 151] | 2 nM
COc1cc(-c2ccc([C@@H]3CCc4ccc([C@H](C5CC5)[C@H](C)C(=O)O)cc4O3)cc2CN2CCCCC2(C)C)c(F)cn1 [Example 152] | 0.5 nM
COc1cc(-c2ccc([C@@H]3CCc4ccc([C@H](C5CC5)[C@H](C)C(=O)O)cc4O3)cc2CN2C3CCC2CC3)c(F)cn1 [Example 162] | 5.4 nM

Continued, values first:

EC50 | SMILES
1.1 nM | COc1cc(-c2ccc([C@@H]3CCc4ccc([C@H](C5CC5)[C@H](C)C(=O)O)cc4O3)cc2CN2CCCC[C@H]2C)c(F)cn1 [Example 153]
1.3 nM | COc1cc(-c2ccc([C@@H]3CCc4ccc([C@H](C5CC5)[C@H](C)C(=O)O)cc4O3)cc2CN2CCCC[C@@H]2C)c(F)cn1 [Example 154]
1.8 nM | COc1cc(-c2ccc([C@@H]3CCc4ccc([C@H](C5CC5)[C@H](C)C(=O)O)cc4O3)cc2CN2CCC(C)(C)CC2)c(F)cn1 [Example 155]
8.3 nM | COc1cc(-c2ccc([C@H]3CCc4ccc([C@H](C5CC5)[C@H](C)C(=O)O)cc4O3)cc2CN2CCC2(C)C)c(F)cn1 [Example 156]
4.2 nM | COc1cc(-c2ccc([C@@H]3CCc4ccc([C@H](C5CC5)[C@H](C)C(=O)O)cc4O3)cc2CN2CCC2(C)C)c(F)cn1 [Example 157]
3.3 nM | CCN(CC)Cc1cc([C@@H]2CCc3ccc([C@H](C4CC4)[C@H](C)C(=O)O)cc3O2)ccc1-c1cc(OC)ncc1F [Example 159]
2.5 nM | COc1cc(-c2ccc([C@@H]3CCc4ccc([C@H](C5CC5)[C@H](C)C(=O)O)cc4O3)cc2CN2CCCC2(C)C)c(F)cn1 [Example 160]
0.6 nM | COc1cc(-c2ccc([C@@H]3CCc4ccc([C@H](C5CC5)[C@H](C)C(=O)O)cc4O3)cc2CN2[C@H](C)CC[C@H]2C)c(F)cn1 [Example 161]
3.3 nM | COC[C@H]1CCCN1Cc1cc([C@H]2CCc3ccc([C@H](C4CC4)[C@H](C)C(=O)O)cc3O2)ccc1-c1cc(OC)ncc1F [Example 163]
1.6 nM | COC[C@H]1CCCN1Cc1cc([C@@H]2CCc3ccc([C@H](C4CC4)[C@H](C)C(=O)O)cc3O2)ccc1-c1cc(OC)ncc1F [Example 164]
3.9 nM | COc1cc(-c2ccc([C@H]3CCc4ccc([C@H](C5CC5)[C@H](C)C(=O)O)cc4O3)cc2CN2CCCCC2)c(F)cn1 [Example 165]
0.3 nM | COc1cc(-c2ccc([C@H]3CCc4ccc([C@H](C5CC5)[C@H](C)C(=O)O)cc4O3)cc2CN2CCCCC2(C)C)c(F)cn1 [Example 166]
2.2 nM | COc1cc(-c2ccc([C@H]3CCc4ccc([C@H](C5CC5)[C@H](C)C(=O)O)cc4O3)cc2CN2CCCC[C@H]2C)c(F)cn1 [Example 167]
2.9 nM | COc1cc(-c2ccc([C@H]3CCc4ccc([C@H](C5CC5)[C@H](C)C(=O)O)cc4O3)cc2CN2CCCC[C@@H]2C)c(F)cn1 [Example 168]
1.7 nM | COc1cc(-c2ccc([C@H]3CCc4ccc([C@H](C5CC5)[C@H](C)C(=O)O)cc4O3)cc2CN2CCC(C)(C)CC2)c(F)cn1 [Example 169]
41 nM | COc1cc(-c2cc(F)c(C3CCc4ccc([C@H](C5CC5)[C@H](C)C(=O)O)cc4O3)cc2CN2CCCC2)ccn1 (stereo partly drawn) [Example 180, 1RS, (2S, 3R)-3-cyclopropyl-3-(2-(2-fluoro-4-(2-methoxypyridin-4-yl)-5-(pyrrolidin-1-ylmethyl)phenyl)chroman-7-yl)-2-methylpropanoic acid]
